Source: ChEMBL document CHEMBL1201862, “PubChem BioAssay data set” (2004)
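The compound was tested at five concentrations on cells cultured in 96-well plates, with a 48-hour exposure period. Here, GI50 denotes the concentration required for 50% inhibition of growth.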 Active and inactive are the calls of the source. Rule as the data show it: active = GI50 up to about 1.1 µM and inactive = higher.

Assays:
Assay in all cases: inhibition of tumour cell growth, NCI panel, 48 h
RPMI-8226 = test system: RPMI-8226
A498 = test system: A498
Hs-578T = test system: Hs-578T
OVCAR-4 = test system: OVCAR-4
SF-268 = test system: SF-268
M14 = test system: M14
SK-MEL-2 = test system: SK-MEL-2
SN12C = test system: SN12C
OVCAR-3 = test system: OVCAR-3
K562 = test system: K562
PC-3 = test system: PC-3
SW-620 = test system: SW-620
RXF 393 = test system: RXF 393
IGROV-1 = test system: IGROV-1
U-251 = test system: U-251
LOX IMVI = test system: LOX IMVI
SF-539 = test system: SF-539
SK-OV-3 = test system: SK-OV-3
CCRF-CEM = test system: CCRF-CEM
OVCAR-8 = test system: OVCAR-8

Compound | GI50 (RPMI-8226) | GI50 (A498) | GI50 (Hs-578T) | GI50 (OVCAR-4) | GI50 (SF-268) | GI50 (M14) | GI50 (SK-MEL-2) | GI50 (SN12C) | GI50 (OVCAR-3) | GI50 (K562) | GI50 (PC-3) | GI50 (SW-620) | GI50 (RXF 393) | GI50 (IGROV-1) | GI50 (U-251) | GI50 (LOX IMVI) | GI50 (SF-539) | GI50 (SK-OV-3) | GI50 (CCRF-CEM) | GI50 (OVCAR-8)
CCC1C(=O)OCc2c1cc1n(c2=O)Cc2cc3ccccc3nc2-1 (stereo not given) | 12.4 µM (inactive) | 10.7 µM (inactive) | > 54.3 µM (inactive) | > 81.8 µM (inactive) | 3.67 µM (inactive) | 3.38 µM (inactive) | > 100 µM (inactive) | 5.07 µM (inactive) | > 100 µM (inactive) | 18.1 µM (inactive) | 15.4 µM (inactive) | 7.16 µM (inactive) | 23.8 µM (inactive) | 17.6 µM (inactive) | 3.53 µM (inactive) | 3.78 µM (inactive) | 1.73 µM (inactive) | 43.6 µM (inactive) | 0.377 µM (active) | 5.69 µM (inactive)
COC(=O)NCCc1n[nH]c2c1C(=O)C=C(N1CCOCC1)C2=O | > 100 µM (inactive) | > 100 µM (inactive) | > 100 µM (inactive) | > 100 µM (inactive) | > 100 µM (inactive) | > 100 µM (inactive) | > 100 µM (inactive) | > 100 µM (inactive) | > 100 µM (inactive) | > 100 µM (inactive) | > 100 µM (inactive) | > 100 µM (inactive) | > 100 µM (inactive) | > 100 µM (inactive) | > 100 µM (inactive) | > 100 µM (inactive) | > 100 µM (inactive) | > 100 µM (inactive) | > 100 µM (inactive) | > 100 µM (inactive)
Cc1ccc2c(ccc(/C=C/c3ccc(O)c4ncccc34)[n+]2C)c1 | 13.9 µM (inactive) | 12.2 µM (inactive) | > 100 µM (inactive) | 5.09 µM (inactive) | 2.94 µM (inactive) | 13.6 µM (inactive) | 17.3 µM (inactive) | 12.1 µM (inactive) | 0.817 µM (active) | 3.11 µM (inactive) | > 25.3 µM (inactive) | 4.65 µM (inactive) | 16.3 µM (inactive) | 15.8 µM (inactive) | 6.62 µM (inactive) | 2.96 µM (inactive) | 7.18 µM (inactive) | 15.4 µM (inactive) | 2.42 µM (inactive) | 2.38 µM (inactive)
CC1(C)CCCCCCCCCC2CC2CCC(C)(C)C1=O (stereo not given) | 24 µM (inactive) | 37.4 µM (inactive) | 31.3 µM (inactive) | 32.9 µM (inactive) | 22.4 µM (inactive) | 18.8 µM (inactive) | 18.6 µM (inactive) | 18.4 µM (inactive) | 12.7 µM (inactive) | 15.6 µM (inactive) | 28.8 µM (inactive) | 35.9 µM (inactive) | 15.4 µM (inactive) | 41.3 µM (inactive) | 18.7 µM (inactive) | 19 µM (inactive) | 18.8 µM (inactive) | 34 µM (inactive) | 21.6 µM (inactive) | 30.2 µM (inactive)
O=C1CCCCC1C(O)(C(F)(F)F)C(F)(F)Cl (stereo not given) | > 10 µM (inactive) | > 10 µM (inactive) | > 10 µM (inactive) | > 10 µM (inactive) | > 10 µM (inactive) | > 10 µM (inactive) | > 10 µM (inactive) | > 10 µM (inactive) | > 10 µM (inactive) | > 10 µM (inactive) | > 10 µM (inactive) | > 10 µM (inactive) | > 10 µM (inactive) | > 10 µM (inactive) | > 10 µM (inactive) | > 10 µM (inactive) | > 10 µM (inactive) | > 10 µM (inactive) | > 10 µM (inactive) | > 10 µM (inactive)
Cc1ccc2nc3c(C)c(Cl)c(=O)cc-3sc2c1 | 3.85 µM (inactive) | 40.2 µM (inactive) | 21.7 µM (inactive) | 18 µM (inactive) | 26.8 µM (inactive) | 15.2 µM (inactive) | 17.2 µM (inactive) | 26.6 µM (inactive) | 6.97 µM (inactive) | 3.65 µM (inactive) | 8.93 µM (inactive) | 28.6 µM (inactive) | 22.9 µM (inactive) | 37.9 µM (inactive) | 12.7 µM (inactive) | 13.9 µM (inactive) | 13.1 µM (inactive) | > 100 µM (inactive) | 3.63 µM (inactive) | 11.2 µM (inactive)
Cc1cccc2c(N)c3cccc(C(=O)NCC[N+](C)(C)Cc4sc(N5CCOCC5)nc4[N+](=O)[O-])c3nc12 | 3.13 µM (inactive) | 11.4 µM (inactive) | 0.748 µM (active) | 4.11 µM (inactive) | 23 µM (inactive) | 2.77 µM (inactive) | 22.6 µM (inactive) | 1.65 µM (inactive) | 2.09 µM (inactive) | 1.16 µM (inactive) | 3.37 µM (inactive) | 0.6 µM (active) | 4.36 µM (inactive) | 1.25 µM (inactive) | 3.04 µM (inactive) | 0.685 µM (active) | 1.12 µM (active) | 1.82 µM (inactive) | 0.217 µM (active) | 2.12 µM (inactive)
CC(=O)OC1CCn2c1nc1cc([N+](=O)[O-])c(C)cc12 (stereo not given) | > 100 µM (inactive) | > 100 µM (inactive) | > 100 µM (inactive) | > 100 µM (inactive) | > 100 µM (inactive) | > 100 µM (inactive) | > 100 µM (inactive) | > 100 µM (inactive) | > 100 µM (inactive) | > 100 µM (inactive) | > 100 µM (inactive) | > 100 µM (inactive) | > 100 µM (inactive) | > 100 µM (inactive) | > 100 µM (inactive) | > 100 µM (inactive) | > 100 µM (inactive) | > 100 µM (inactive) | > 100 µM (inactive) | > 100 µM (inactive)
COc1ccc2[nH]c3c(C)c4ccnc(NCCCN(C)CCCNc5ccc6nnn7c8ccccc8c(=O)c5c67)c4c(C)c3c2c1 | 0.0474 µM (active) | 1.35 µM (inactive) | 1.38 µM (inactive) | 1.02 µM (active) | 0.679 µM (active) | 0.938 µM (active) | > 10 µM (inactive) | 0.242 µM (active) | 1.17 µM (inactive) | 0.226 µM (active) | 0.597 µM (active) | 0.013 µM (active) | 1.03 µM (active) | 0.308 µM (active) | 0.223 µM (active) | 0.228 µM (active) | 0.237 µM (active) | 2.64 µM (inactive) | 0.0047 µM (active) | 0.297 µM (active)
O=C(O)CNc1ccc(C(=O)O)cc1 | > 100 µM (inactive) | > 100 µM (inactive) | > 100 µM (inactive) | > 100 µM (inactive) | > 100 µM (inactive) | > 100 µM (inactive) | > 100 µM (inactive) | > 100 µM (inactive) | > 100 µM (inactive) | > 100 µM (inactive) | > 100 µM (inactive) | > 100 µM (inactive) | > 100 µM (inactive) | > 100 µM (inactive) | > 100 µM (inactive) | > 100 µM (inactive) | > 100 µM (inactive) | > 100 µM (inactive) | > 100 µM (inactive) | > 100 µM (inactive)
